According to patent publication US4631270A, “Therapeutically useful pseudopeptides, compositions containing the same and methods of preparation and use” (priority 1985, dated 1986):
Like-named read-outs stand apart in the source and are kept apart here.

Columns and labels:
[1] = test system: Swiss Wistar mice; test: Acute toxicity and weight gain of Swiss Wistar mice injected I.P.; format: in vivo; settings: dose levels 44-432 mg/Kg, five mice per dose level
Description: One example of the low toxicity of the compounds of this invention is the results achieved with mice on treatment with Gly .PSI. Leu. In the test Swiss Wistar mice were injected I.P. with Gly .PSI. Leu at the dose levels indicated below. Five mice were tested at each dose level. […] The behavior of the animals was observed closely for 7 days after injection.

[2] = test system: methionine adenosyl transferase (MAT)
Excerpt: Possible mutagenic effects of pseudodipeptides were examined two ways. One possible route for a metabolic complication is via the action of methionine adenosyl transferase (MAT). Ethionine (which contains a thiomethylene linkage) is known to be both a carcinogen and a substrate for MAT.

[3] = test system: repair-deficient strains of Bacillus subtilis; test: Mutagenicity test, variation of the Ames test (overall result); format: cell-based; settings: results of Table 2b
Description: (§1) The mutagenicity of Gly .PSI. Leu and Gly .PSI. Ile was examined by a variation of the Ames test using repair-deficient strains of Bacillus subtilis.
(§2) The specific procedures by which these tests were conducted are described in the following references: […]

[4] = test system: Wild type; test: Mutagenicity test, growth inhibition, wild type strain; format: cell-based, Bacillus subtilis; settings: concentration 0.1 M
Description: as §1, §2

[5] = test system: MC-1; test: Mutagenicity test, growth inhibition, strain MC-1; format: cell-based, Bacillus subtilis; settings: concentration 0.1 M
Description: as §1, §2

[6] = test system: Hcr-9; test: Mutagenicity test, growth inhibition, strain Hcr-9; format: cell-based, Bacillus subtilis
Description: as §1, §2

[7] = test system: FB-13; test: Mutagenicity test, growth inhibition, strain FB-13; format: cell-based, Bacillus subtilis; settings: concentration 0.1 M
Description: as §1, §2

[8] = test system: Pol A; test: Mutagenicity test, growth inhibition, strain Pol A; format: cell-based, Bacillus subtilis; settings: concentration 0.1 M
Description: as §1, §2

[9] = rapid destruction by proteolysis; cited from earlier work

Compound | signs of acute toxicity [1] | Counts/Min transferred ([2]; Expt I, concentration 12 mM, None = 15,760) | Counts/Min transferred ([2]; Expt II, concentration 80 mM, None = 7,380) | effect on MAT activity ([2]; possible substrate or competitive inhibitor of MAT) | mutagenicity [3] | Growth Inhibition of Bacterial Strains in mm, Wild type [4] | Growth Inhibition of Bacterial Strains in mm, MC-1 [5] | Growth Inhibition of Bacterial Strains in mm, Hcr-9 ([6]; concentration 0.1 M) | Growth Inhibition of Bacterial Strains in mm, FB-13 [7] | Growth Inhibition of Bacterial Strains in mm, Pol A [8] | Growth Inhibition of Bacterial Strains in mm, Hcr-9 [6] | biological half-life [9]
CC(C)CC(SCCN)C(=O)O (centres unmarked) [Gly .PSI. Leu, pseudoglycylleucine] | In no case did any of the mice show any signs of acute toxicity | 16,620 Counts/Min | 7,990 Counts/Min | neither Gly .PSI. Leu nor Gly .PSI. D-Leu has a measurable effect on MAT activity | neither Gly .PSI. Leu nor Gly .PSI. Ile behaves as a mutagen | 0 mm | 0 mm | 0 mm | 0 mm | 0 mm |  | 
CC[C@H](C)[C@H](SCCN)C(=O)O [Gly .PSI. Ile] |  |  |  |  | neither Gly .PSI. Leu nor Gly .PSI. Ile behaves as a mutagen | 0 mm | 0 mm |  | 0 mm | 0 mm | 0 mm | 
pGlu-His-Trp-Ser-Tyr-Gly-Leu-Arg-Pro-Gly-NH2 [Luteinizing hormone-releasing hormone] |  |  |  |  |  |  |  |  |  |  |  | 2 min.
